Data as given in patent publication US9469615B2, “Quinoxalines and AZA-quinoxalines as CRTH2 receptor modulators” (Merck Sharp & Dohme Corp., priority 2010, dated 2016).

Molecular target: T1, hCRTH2 (Homo sapiens, UniProt Q9Y5Y4)
T1 construct: expressed in transfected cells; host or cells: HEK (human embryonic kidney) cells expressing hCRTH2; membrane preparation
T1 sequence (Q9Y5Y4 1-395): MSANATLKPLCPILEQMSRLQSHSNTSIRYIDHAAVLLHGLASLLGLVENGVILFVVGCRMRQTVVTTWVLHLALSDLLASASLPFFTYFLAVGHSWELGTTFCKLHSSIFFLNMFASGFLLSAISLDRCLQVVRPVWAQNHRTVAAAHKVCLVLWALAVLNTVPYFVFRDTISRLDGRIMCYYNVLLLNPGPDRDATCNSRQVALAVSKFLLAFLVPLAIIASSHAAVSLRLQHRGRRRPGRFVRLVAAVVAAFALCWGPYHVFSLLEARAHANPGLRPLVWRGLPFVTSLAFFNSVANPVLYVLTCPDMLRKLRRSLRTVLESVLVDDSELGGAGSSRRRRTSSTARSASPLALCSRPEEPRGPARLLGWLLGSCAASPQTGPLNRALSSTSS
Experiment: Radioligand binding assay ([3H]PGD2 competition, HEK-hCRTH2 membranes)
Conditions: [3H]PGD2 binding, rated A-E (Table A)
Outline: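 Filter-bound radioactivity was counted by scintillation after 60 min incubations at room temperature. Membranes (8-20 μg) from HEK cells expressing hCRTH2 competed test ligands against 3.0 nM [3H]PGD2 in Tris-HCl pH 7.4 buffer with EDTA and 2 mM MnCl2; 10 μM PGD2 set non-specific binding.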

Row | Ki | Structure (SMILES)
1 | 2.1 to 20 nM | O=C(O)CCCCc1nc2cc(C(=O)N[C@@H](c3ccccc3)C(F)(F)F)ccc2nc1-c1ccc(F)cc1 [compound 102, 3-(4-fluorophenyl)-7-[[(2,2,2-trifluoro-1(S)-phenylethyl)amino]carbonyl]-2-quinoxalinepentanoic acid]
2 | 0.1 to 2 nM | O=C(O)CCCCc1nc2cc(C(=O)NC3Cc4ccccc4C3)ccc2nc1-c1ccc(F)cc1 [compound 103, 7-[[(2,3-dihydro-1H-inden-2-yl)amino]carbonyl]-3-(4-fluorophenyl)-2-quinoxalinepentanoic acid]
3 | 2.1 to 20 nM | N#Cc1ccc(CNC(=O)c2ccc3nc(-c4ccc(F)cc4)c(CCCCC(=O)O)nc3c2)cc1 [compound 104, 7-[[[(4-cyanophenyl)methyl]amino]carbonyl]-3-(4-fluorophenyl)-2-quinoxalinepentanoic acid]
4 | 2.1 to 20 nM | O=C(O)CCCCc1nc2cc(C(=O)N3CCC(c4ccccc4)CC3)ccc2nc1-c1ccc(F)cc1 [compound 105, 3-(4-fluorophenyl)-7-[(4-phenyl-1-piperidinyl)carbonyl]-2-quinoxalinepentanoic acid]
5 | 0.1 to 2 nM | O=C(O)CCCCc1nc2cc(C(=O)N3CCC(c4ccccc4)C3)ccc2nc1-c1ccc(F)cc1 (stereo not shown) [compound 106, 3-(4-fluorophenyl)-7-[(3-phenyl-1-pyrrolidinyl)carbonyl]-2-quinoxalinepentanoic acid]
6 | 2.1 to 20 nM | O=C(O)CCCCc1nc2cc(C(=O)NCc3ccc(OC(F)(F)F)cc3)ccc2nc1-c1ccc(F)cc1 [compound 107, 3-(4-fluorophenyl)-7-[[[[4-(trifluoromethoxy)phenyl]methyl]amino]carbonyl]-2-quinoxalinepentanoic acid]
7 | 2.1 to 20 nM | O=C(O)CCCCc1nc2cc(C(=O)NCc3cc(Cl)cc(Cl)c3)ccc2nc1-c1ccc(F)cc1 [compound 108, 7-[[[(3,5-dichlorophenyl)methyl]amino]carbonyl]-3-(4-fluorophenyl)-2-quinoxalinepentanoic acid]
8 | 2.1 to 20 nM | O=C(O)CCCCc1nc2cc(C(=O)NCc3ccc(F)cc3)ccc2nc1-c1ccc(F)cc1 [compound 109, 3-(4-fluorophenyl)-7-[[[(4-fluorophenyl)methyl]amino]carbonyl]-2-quinoxalinepentanoic acid]
9 | 2.1 to 20 nM | C[C@@H](NC(=O)c1ccc2nc(-c3ccc(F)cc3)c(CCCCC(=O)O)nc2c1)c1ccc(F)cc1 [compound 110, 3-(4-fluorophenyl)-7-[[[1(R)-(4-fluorophenyl)ethyl]amino]carbonyl]-2-quinoxalinepentanoic acid]
10 | 2.1 to 20 nM | C[C@H](NC(=O)c1ccc2nc(-c3ccc(F)cc3)c(CCCCC(=O)O)nc2c1)c1ccc(F)cc1 [compound 111, 3-(4-fluorophenyl)-7-[[[1(S)-(4-fluorophenyl)ethyl]amino]carbonyl]-2-quinoxalinepentanoic acid]
11 | 2.1 to 20 nM | O=C(O)CCCCc1nc2cc(C(=O)NCc3ccc(C(F)(F)F)cc3)ccc2nc1-c1ccc(F)cc1 [compound 112]
12 | 2.1 to 20 nM | COCCn1c(=O)n(C2CCN(C(=O)c3ccc4nc(-c5ccccc5)c(CCCCC(=O)O)nc4c3)CC2)c2ccccc21 [compound 113, 7-[[4-[2,3-dihydro-3-(2-methoxyethyl)-2-oxo-1H-benzimidazol-1-yl]-1 - piperidinyl]carbonyl]-3-phenyl-2-quinoxalinepentanoic acid]
13 | 2.1 to 20 nM | CO/N=C(/c1ccccn1)C1CCN(C(=O)c2ccc3nc(-c4ccccc4)c(CCCCC(=O)O)nc3c2)CC1 [compound 114, 7-[[4-[(E)-(methoxyimino)-2-pyridinylmethyl]-1-piperidinyl]carbonyl]-3-phenyl-2-quinoxalinepentanoic acid]
14 | 2.1 to 20 nM | O=C(O)CCCCc1nc2cc(C(=O)N3CC=C(c4ccccc4)CC3)ccc2nc1-c1ccccc1 [compound 116, 7-(4-phenyl-1,2,3,6-tetrahydropyridine-1-carbonyl)-3-phenyl-2-quinoxalinepentanoic acid]
15 | 2.1 to 20 nM | O=C(O)CCCCc1nc2cc(C(=O)N3CCC(n4c(=O)[nH]c5ccccc54)CC3)ccc2nc1-c1ccccc1 [compound 117, 7-[[4-(2,3-dihydro-2-oxo-1H-benzimidazol-1-yl)-1-piperidinyl]carbonyl]-3-phenyl-2-quinoxalinepentanoic acid]
16 | 2.1 to 20 nM | CS(=O)(=O)N1CC2(CCN(C(=O)c3ccc4nc(-c5ccccc5)c(CCCCC(=O)O)nc4c3)CC2)c2ccccc21 [compound 118, 7-[[1,2-dihydro-1-(methylsulfonyl)spiro[3H-indole-3,4′-piperidin]-1′-yl]carbonyl]-3-phenyl-2-quinoxalinepentanoic acid]
17 | 2.1 to 20 nM | CN1C(=O)C2(CCN(C(=O)c3ccc4nc(-c5ccccc5)c(CCCCC(=O)O)nc4c3)CC2)c2ccccc21 [compound 119]

Row | Ki | Structure (SMILES)
18 | 2.1 to 20 nM | O=C(O)CCCCc1nc2cc(C(=O)N3CCC4(CC3)COc3ccccc34)ccc2nc1-c1ccccc1 [compound 120, 3-phenyl-7-(spiro[benzofuran-3(2H),4′-piperidin]-1′-ylcarbonyl)-2-quinoxalinepentanoic acid]
19 | 2.1 to 20 nM | O=C(O)CCCCc1nc2cc(C(=O)N3CCC4(CCc5ccccc54)CC3)ccc2nc1-c1ccccc1 [compound 121, 7-[(2,3-dihydrospiro [1H-indene-1,4′-piperidin]-1′-yl)carbonyl]-3-phenyl-2-quinoxalinepentanoic acid]
20 | 2.1 to 20 nM | CN1CC2(CCN(C(=O)c3ccc4nc(-c5ccccc5)c(CCCCC(=O)O)nc4c3)CC2)c2ccccc21 [compound 122, 7-[(1,2-dihydro-1-methylspiro[3H-indole-3,4′-piperidin]-1′-yl)carbonyl]-3-phenyl-2-quinoxalinepentanoic acid]
21 | 2.1 to 20 nM | CC(=O)N1CC2(CCN(C(=O)c3ccc4nc(-c5ccccc5)c(CCCCC(=O)O)nc4c3)CC2)c2ccccc21 [compound 123, 7-[(1-acetyl-1,2-dihydrospiro[3H-indole-3,4′-piperidin]-1′-yl)carbonyl]-3-phenyl-2-quinoxalinepentanoic acid]
22 | 2.1 to 20 nM | N#CC1(c2ccccc2)CCN(C(=O)c2ccc3nc(-c4ccccc4)c(CCCCC(=O)O)nc3c2)CC1 [compound 124, 7-[(4-cyano-4-phenyl-1-piperidinyl)carbonyl]-3-phenyl-2-quinolaxinepentanoic acid]
23 | 2.1 to 20 nM | O=C(O)CCCCc1nc2cc(C(=O)N3CCC4(CC3)C(=O)NCN4c3ccccc3)ccc2nc1-c1ccccc1 [compound 125, 7-[(4-oxo-l-phenyl-1,3,8-triazaspiro[4.5]dec-8-yl)carbonyl]-3-phenyl-2-quinoxalinepentanoic acid]
24 | 2.1 to 20 nM | O=C(O)CCCCc1nc2cc(C(=O)N3CCC4(CC3)C(=O)NCN4c3ccccc3)ccc2nc1-c1ccc(F)cc1 [compound 126, 3-(4-fluorophenyl)-7-[(4-oxo-1-phenyl-1,3,8-triazaspiro[4.5]dec-8-yl)carbonyl]-2-quinoxalinepentanoic acid]
25 | 2.1 to 20 nM | O=C(O)CCCCc1nc2cc(C(=O)N3CC=C(c4ccccc4)CC3)ccc2nc1-c1ccc(F)cc1 [compound 127, 5-(3-(4-fluorophenyl)-7-(4-phenyl-1,2,3,6-tetrahydropyridine-1-carbonyl)quinoxalin-2-yl)pentanoic acid]
26 | 2.1 to 20 nM | N#CC1(c2ccccc2)CCN(C(=O)c2ccc3nc(-c4ccc(F)cc4)c(CCCCC(=O)O)nc3c2)CC1 [compound 128]
27 | 0.1 to 2 nM | O=C(O)CCCCc1nc2cc(C(=O)NCc3ccccc3)ccc2nc1-c1ccc(F)cc1 [compound 129, 3-(4-fluorophenyl)-7-[[(phenylmethyl)amino]carbonyl]-2-quinoxalinepentanoic acid]
28 | 0.1 to 2 nM | C[C@@H](NC(=O)c1ccc2nc(-c3ccc(F)cc3)c(CCCCC(=O)O)nc2c1)c1ccc(Cl)cc1 [compound 130, 7-[[[1(R)-(4-chlorophenyl)ethyl]amino]carbonyl]-3-(4-fluorophenyl)-2-quinoxalinepentanoic acid]
29 | 2.1 to 20 nM | C[C@H](NC(=O)c1ccc2nc(-c3ccc(F)cc3)c(CCCCC(=O)O)nc2c1)c1ccc(Cl)cc1 [compound 131, 7-[[[1(S)-(4-chlorophenyl)ethyl]amino]carbonyl]-3-(4-fluorophenyl)-2-quinoxalinepentanoic acid]
30 | 2.1 to 20 nM | C[C@@H](NC(=O)c1ccc2nc(-c3ccc(F)cc3)c(CCCCC(=O)O)nc2c1)c1ccccc1 [compound 132, 3-(4-fluorophenyl)-7-[[(1(R)-phenylethyl)amino]carbonyl]-2-quinoxalinepentanoic acid]
31 | 2.1 to 20 nM | C[C@H](NC(=O)c1ccc2nc(-c3ccc(F)cc3)c(CCCCC(=O)O)nc2c1)c1ccccc1 [compound 133, 3-(4-fluorophenyl)-7-[[(1(S)-phenylethyl)amino]carbonyl]-2-quinoxalinepentanoic acid]
32 | 0.1 to 2 nM | O=C(O)CCCCc1nc2cc(C(=O)N3CCC(O)(c4ccc(Cl)cc4)CC3)ccc2nc1-c1ccc(F)cc1 [compound 134, 7-[[4-(4-chlorophenyl)-4-hydroxy-1-piperidinyl]carbonyl]-3-(4-fluorophenyl)-2-quinoxalinepentanoic acid]
33 | 2.1 to 20 nM | O=C(O)CCCCc1nc2cc(C(=O)N3CCC(c4ccc(Cl)cc4)CC3)ccc2nc1-c1ccc(F)cc1 [compound 135]
34 | 2.1 to 20 nM | O=C(O)CCCCc1nc2cc(C(=O)N3CC=C(c4ccc(Cl)cc4)CC3)ccc2nc1-c1ccc(F)cc1 [compound 136, 7-[[4-(4-chlorophenyl)-3,6-dihydro-1(2H)-pyridinyl]carbonyl]-3-(4-fluorophenyl)-2-quinoxalinepentanoic acid]
